From patent US8426194B2, “Methods and agents for screening for compounds capable of modulating VEGF expression” (PTC Therapeutics, Inc., priority 2003, dated 2013)

Test system: VEGF UTRs
Experiment: Luciferase reporter inhibition in B9 (VEGF UTRs) versus B12 (no VEGF UTRs) cell lines
Format: cell-based, human
Details: B9 with VEGF 5'- and 3'-UTRs, B12 without
Description: A monocistronic reporter construct (pLuc/vegf5′+3′UTR) is under the transcriptional control of the CMV promoter and contains a VEGF IRES driving the luciferase reporter, which nucleic acid sequences are both upstream of a VEGF 3′-UTR. Stable cell lines are generated by transfecting 293 cells with the pLuc/vegf5′+3′UTR. A stable cell line is cultured under hygromycin B selection to create clonal cell lines consistent with protocols well known in the art. After two weeks of selection, clonal cell lines are screened for luciferase activity. The luciferase activity of several clonal cell lines (hereafter “clones”) are compared and normalized against total protein content. Clones are maintained under hygromycin B selection for more than three months with intermittent monitoring of luciferase activity. Clones are stable and maintain a high level of luciferase expression. Many clones, for example, about twenty, may be compared to each other with respect to luciferase activity. […] Particular parameters for clones are studied prior to selection for use in post-transcriptional, high-throughput screening (PTHTS). Relevant parameters for PTHTS include, but are not limited to, cell number, incubation time, DMSO concentration, and volume of substrate. The B9 cell line harbors the firefly luciferase reporter driven by the CMV promoter and flanked by the 5′- and 3′-UTRs of VEGF transcripts. […]

## COc1ccc(C[C@H](N)C(=O)N[C@H]2[C@@H](O)[C@H](n3cnc4c(N(C)C)ncnc43)O[C@@H]2CO)cc1 [puromycin]
  UTR specificity: luciferase inhibition in B9 versus B12 cell lines: does not change the difference of inhibition in luciferase expression in these two cell lines
